# ChEMBL document CHEMBL4308841, “Synthesis, in vitro antiproliferative activity, and kinase inhibitory effects of pyrazole-containing diarylureas and diarylamides” (Eur J Med Chem, 2018)
# Columns and labels:
# RXF 393 [1] = experiment: Growth inhibition of human RXF393 cells assessed as cell growth at 0.01 uM incubated for 48 hrs by sulforhodamine B assay relative to control; assay type: functional; conditions: RXF 393, 48 h, read-out: Activity
# UO-31 [2] = experiment: Growth inhibition of human UO31 cells assessed as cell growth at 1 uM incubated for 48 hrs by sulforhodamine B assay relative to control; assay type: functional; conditions: UO-31, 48 h, read-out: Activity
# UO-31 [3] = experiment: Growth inhibition of human UO31 cells incubated for 48 hrs by sulforhodamine B assay; assay type: functional, cell-based; conditions: UO-31, 48 h
# SN12C = experiment: Growth inhibition of human SN12C cells assessed as cell growth at 1 uM incubated for 48 hrs by sulforhodamine B assay relative to control; assay type: functional; conditions: read-out: Activity
# Malme-3M = experiment: Growth inhibition of human MALME-3M cells incubated for 48 hrs by sulforhodamine B assay; assay type: functional, cell-based
# MOLT-4 = experiment: Growth inhibition of human MOLT4 cells assessed as cell growth at 0.01 uM incubated for 48 hrs by sulforhodamine B assay relative to control; assay type: functional; conditions: MOLT-4, 48 h, read-out: Activity
# Hs-578T = experiment: Growth inhibition of human Hs578T cells assessed as cell growth at 0.01 uM incubated for 48 hrs by sulforhodamine B assay relative to control; assay type: functional; conditions: read-out: Activity
# NCI-H322M = experiment: Growth inhibition of human NCI-H322M cells incubated for 48 hrs by sulforhodamine B assay; assay type: functional, cell-based
# HOP-62 = experiment: Growth inhibition of human HOP62 cells assessed as cell growth at 100 uM incubated for 48 hrs by sulforhodamine B assay relative to control; assay type: functional; conditions: HOP-62, 48 h, read-out: Activity
# BT-549 = experiment: Growth inhibition of human BT549 cells assessed as cell growth at 0.1 uM incubated for 48 hrs by sulforhodamine B assay relative to control; assay type: functional; conditions: BT-549, 48 h, read-out: Activity
# MDA-MB-231 = experiment: Growth inhibition of human MDA-MB-231 cells assessed as cell growth at 1 uM incubated for 48 hrs by sulforhodamine B assay relative to control; assay type: functional; conditions: MDA-MB-231, 48 h, read-out: Activity
# RXF 393 [4] = experiment: Growth inhibition of human RXF393 cells assessed as cell growth at 100 uM incubated for 48 hrs by sulforhodamine B assay relative to control; assay type: functional; conditions: RXF 393, 48 h, read-out: Activity
# HCT-15 = experiment: Growth inhibition of human HCT15 cells assessed as cell growth at 0.1 uM incubated for 48 hrs by sulforhodamine B assay relative to control; assay type: functional; conditions: HCT-15, 48 h, read-out: Activity
# HT-29 = experiment: Growth inhibition of human HT-29 cells assessed as cell growth at 10 uM incubated for 48 hrs by sulforhodamine B assay relative to control; assay type: functional; conditions: HT-29, 48 h, read-out: Activity
# HL-60(TB) = experiment: Growth inhibition of human HL-60(TB) cells assessed as cell growth at 0.1 uM incubated for 48 hrs by sulforhodamine B assay relative to control; assay type: functional; conditions: HL-60, 48 h, read-out: Activity
# ACHN = experiment: Growth inhibition of human ACHN cells incubated for 48 hrs by sulforhodamine B assay; assay type: functional, cell-based
# UACC-257 = experiment: Growth inhibition of human UACC257 cells assessed as cell growth at 100 uM incubated for 48 hrs by sulforhodamine B assay relative to control; assay type: functional; conditions: UACC-257, 48 h, read-out: Activity
# SW-620 = experiment: Growth inhibition of human SW620 cells assessed as cell growth at 100 uM incubated for 48 hrs by sulforhodamine B assay relative to control; assay type: functional; conditions: SW-620, 48 h, read-out: Activity
# NCI/ADR-RES = experiment: Growth inhibition of human NCI/ADR-RES cells incubated for 48 hrs by sulforhodamine B assay; assay type: functional, cell-based
# K562 [5] = experiment: Growth inhibition of human K562 cells assessed as cell growth at 100 uM incubated for 48 hrs by sulforhodamine B assay relative to control; assay type: functional; conditions: K562, 48 h, read-out: Activity
# SK-MEL-28 = experiment: Growth inhibition of human SK-MEL-28 cells assessed as cell growth at 0.01 uM incubated for 48 hrs by sulforhodamine B assay relative to control; assay type: functional; conditions: SK-MEL-28, 48 h, read-out: Activity
# K562 [6] = experiment: Growth inhibition of human K562 cells assessed as cell growth at 0.1 uM incubated for 48 hrs by sulforhodamine B assay relative to control; assay type: functional; conditions: K562, 48 h, read-out: Activity
# OVCAR-8 = experiment: Growth inhibition of human OVCAR8 cells assessed as cell growth at 0.01 uM incubated for 48 hrs by sulforhodamine B assay relative to control; assay type: functional; conditions: OVCAR-8, 48 h, read-out: Activity
# RXF 393 [7] = experiment: Growth inhibition of human RXF393 cells incubated for 48 hrs by sulforhodamine B assay; assay type: functional, cell-based; conditions: RXF 393, 48 h
# UACC-62 [8] = experiment: Growth inhibition of human UACC62 cells assessed as cell growth at 0.01 uM incubated for 48 hrs by sulforhodamine B assay relative to control; assay type: functional; conditions: UACC-62, 48 h, read-out: Activity
# LOX IMVI = experiment: Growth inhibition of human LOXIMVI cells assessed as cell growth at 100 uM incubated for 48 hrs by sulforhodamine B assay relative to control; assay type: functional; conditions: read-out: Activity
# UACC-62 [9] = experiment: Growth inhibition of human UACC62 cells assessed as cell growth at 0.1 uM incubated for 48 hrs by sulforhodamine B assay relative to control; assay type: functional; conditions: UACC-62, 48 h, read-out: Activity
# NCI-H522 = experiment: Growth inhibition of human NCI-H522 cells incubated for 48 hrs by sulforhodamine B assay; assay type: functional, cell-based; conditions: NCI-H522, 48 h
# 786-0 = experiment: Growth inhibition of human 786-0 cells assessed as cell growth at 0.1 uM incubated for 48 hrs by sulforhodamine B assay relative to control; assay type: functional; conditions: 786-0, 48 h, read-out: Activity
# [10] = read-out: LC50 (the source's name)
# [11] = read-out: pLC50 (the source's name) (converted)
smiles,measurement,setting,value
COc1cc(Cl)cc(-c2nn(-c3cccc(NC(=O)Nc4ccc(Cl)c(Cl)c4)c3)cc2-c2ccncc2)c1,growth at 0.01 µM,RXF 393 [1],100%
same,growth at 1 µM,UO-31 [2],88%
same,IC50,UO-31 [3],1.89 µM
same,GI50,UO-31 [3]; read-out: GI50,1.59 µM
same,CC50,UO-31 [3]; [10],> 100 µM
same,TGI,UO-31 [3]; read-out: TGI,15.2 µM
same,GI50,UO-31 [3]; read-out: pGI50 (converted),1.91 µM
same,CC50,UO-31 [3]; [11],> 100 µM
same,TGI,UO-31 [3]; read-out: pTGI (converted),18.2 µM
same,growth at 1 µM,SN12C,87%
same,GI50,Malme-3M; read-out: GI50,2.06 µM
same,CC50,Malme-3M; [10],> 100 µM
same,TGI,Malme-3M; read-out: TGI,75.5 µM
same,GI50,Malme-3M; read-out: pGI50 (converted),2.04 µM
same,CC50,Malme-3M; [11],> 100 µM
same,TGI,Malme-3M; read-out: pTGI (converted),7.94 µM
same,growth at 0.01 µM,MOLT-4,99%
same,growth at 0.01 µM,Hs-578T,93%
same,GI50,NCI-H322M; read-out: GI50,3.26 µM
same,CC50,NCI-H322M; [10],> 100 µM
same,TGI,NCI-H322M; read-out: TGI,> 100 µM
same,GI50,NCI-H322M; read-out: pGI50 (converted),3.31 µM
same,CC50,NCI-H322M; [11],> 100 µM
same,TGI,NCI-H322M; read-out: pTGI (converted),> 100 µM
same,growth at 100 µM,HOP-62,12%
same,growth at 0.1 µM,BT-549,98%
same,growth at 1 µM,MDA-MB-231,85%
same,growth at 100 µM,RXF 393 [4],-43%
same,growth at 0.1 µM,HCT-15,53%
same,growth at 10 µM,HT-29,7.39%
same,growth at 0.1 µM,HL-60(TB),93%
same,GI50,ACHN; read-out: GI50,3.23 µM
same,CC50,ACHN; [10],> 100 µM
same,TGI,ACHN; read-out: TGI,> 100 µM
same,GI50,ACHN; read-out: pGI50 (converted),3.24 µM
same,CC50,ACHN; [11],> 100 µM
same,TGI,ACHN; read-out: pTGI (converted),> 100 µM
same,growth at 100 µM,UACC-257,-36%
same,growth at 100 µM,SW-620,7%
same,GI50,NCI/ADR-RES; read-out: GI50,2.34 µM
same,CC50,NCI/ADR-RES; [10],> 100 µM
same,TGI,NCI/ADR-RES; read-out: TGI,24.9 µM
same,GI50,NCI/ADR-RES; read-out: pGI50 (converted),2.34 µM
same,CC50,NCI/ADR-RES; [11],> 100 µM
same,TGI,NCI/ADR-RES; read-out: pTGI (converted),25.1 µM
same,growth at 100 µM,K562 [5],3%
same,growth at 0.01 µM,SK-MEL-28,101%
same,growth at 0.1 µM,K562 [6],58%
same,growth at 0.01 µM,OVCAR-8,96%
same,LC50,RXF 393 [7],> 100 µM
same,GI50,RXF 393 [7]; read-out: GI50,1.96 µM
same,TGI,RXF 393 [7]; read-out: TGI,72.5 µM
same,GI50,RXF 393 [7]; read-out: pGI50 (converted),1.95 µM
same,TGI,RXF 393 [7]; read-out: pTGI (converted),7.24 µM
same,growth at 0.01 µM,UACC-62 [8],95%
same,growth at 100 µM,LOX IMVI,-30%
same,growth at 0.1 µM,UACC-62 [9],97%
same,GI50,NCI-H522; read-out: GI50,1.29 µM
same,CC50,NCI-H522; [10],> 100 µM
same,TGI,NCI-H522; read-out: TGI,44.8 µM
same,GI50,NCI-H522; read-out: pGI50 (converted),1.29 µM
same,CC50,NCI-H522; [11],> 100 µM
same,TGI,NCI-H522; read-out: pTGI (converted),4.47 µM
same,growth at 0.1 µM,786-0,98%
